# According to patent publication US11396511B2, “Substituted 9,13b-dihydro-1H-dibenzo[c,f]imidazo[1,5-a]azepin-3-ylbenzamides as anti-inflammatory and analgesic agents” (FRONTBIO CO., LTD., priority 2017, dated 2022):
# Assays:
# mice [1] = test: Hot-plate test; format: in vivo; conditions: for response time to the thermal stimulus (hot-plate): 30 min pretreatment, in s (unit assumed)
# Description: Hot-plate test was conducted using an electric heater to measure the analgesic activity of the test substances on the acute thermal stimulus. Experimental animals were injected with the test drugs and a vehicle (control) and were sequentially placed on an electric heater (hot-plate). The response time to the thermal stimulus ([…]) was defined as the time until the experimental animal licked their paws. Male mice weighing 22-25 g, aged 4-5 weeks, were used as the test animals (10 per group).
# 30 min after pretreatment with the compound 3 (E-S) at concentrations of 10, 20, 40, and 80 mg/kg, hot-plate test was conducted to assess the analgesic efficacy of the compound 3. […] The analgesic efficacy of the compound 4 (E-A) was assessed in the same manner as that of the compound 3.
# MAPK = test: Western blot analysis, MAPK signaling by LPS signals; format: cell-based
# Description: (§1) Cells were harvested, washed with 1×PBS, and suspended by adding a mixture of a protein extraction buffer (150 mM NaCl, 50 mM Tris-HCl pH 7.4, 5 mM EDTA pH 8.0, 1% NP-40) and a protease inhibitor cocktail. Then, the reaction was allowed to proceed in ice for 20 min, sonicated, and centrifuged (13,000 rpm, 30 min). The concentration of proteins in the supernatant was quantified by a BCA protein assay and proteins were separated on the basis of size on an SDS-PAGE gel. Thereafter, proteins were transferred to a PVDF membrane and blocked with skim milk for 1 h. Primary and secondary antibodies were coupled and photosensitized with ECL solution to determine the expression levels of desired proteins.
# [2] = system: monosodium urate (MSU) models; test: Von-frey test in monosodium urate models; format: in vivo, mice; parameters: threshold values (Von-frey test): unit not given here; conditions: monosodium urate model
# Description: 100 mg of uric acid and 60 μl of 10 N NaOH were dissolved in 20 ml of distilled water and the pH of the solution was adjusted to 7.2-7.4 with HCl (1 N) at 60° C. After stirring at room temperature for 5 days, the solution was plated in a 1 ml tube and stored for 4 days. The solution was vortexed overnight until needle-like crystals appeared. The solution was washed twice with 100% ethanol and centrifuged at 3000 rpm for 2 min. Finally, the MSU crystals were collected and dissolved in […] of endotoxin-free PBS. The resulting sample were injected intra-articularly into mice (MSU 300 μg/10 μl each) under anesthesia. At 24 h post-injection, pain or ankle swelling were measured to determine the analgesic efficacy of a test substance.
# After damage to the sciatic nerve, allodynia induced by the mechanical stimulus was measured. Mice were housed in acrylic chambers on a steel mesh floor and acclimated for ≥60 min before testing. Continuous responses were evaluated using Von-frey filaments by the up-down method. The filaments were brought into vertical contact with the affected left soles and the contact was maintained for 5-6 sec. The response was considered to be positive when the mouse rapidly avoided the stimulus, startled or licked its sole. The Von-frey filaments were first used to stimulate the mice.
# The analgesic efficacies of the test substances were evaluated in monosodium urate models. To this end, after oral administration of each test substance at concentrations of 10, 20, 40, and 80 mg/kg, threshold values were measured at different periods of time through Von-frey test.
# mice [3] = test: Writhing test (1% acetic acid intraperitoneally); format: in vivo; conditions: for numbers of stretching and writhing movements: 30 min pretreatment
# Description: In accordance with the most common method for measuring the analgesic efficacies of the test substances in the peripheral nerve based on abdominal contraction responses as indices, 1% acetic acid was administered intraperitoneally to mice to induce damage or pain of the abdominal peripheral vessels. After acetic acid administration, the behavioral profiles of the mice were observed and the numbers of stretching and writhing movements of the mice were counted to determine the analgesic efficacies of the test substances.
# 30 min after pretreatment with the compound 3 (E-S) at concentrations of 10, 20, 40, and 80 mg/kg, writhing test was conducted to assess the analgesic efficacy of the compound 3. As a result, the analgesic efficacy of the compound 3 was concentration-dependent (FIG. 4a and Table 4). The analgesic efficacy of the compound 4 (E-A) was assessed in the same manner as that of the compound 3.
# Akt = test: Western blot analysis, Akt signaling by LPS signals; format: cell-based; conditions: 100 uM
# Description: as §1
# Raw 264.7 cells = test: Cell viability measurement (MTS); format: cell-based
# Description: Raw 264.7 cells were plated in a 96-well cell culture plate (50,000 cells/well). The cell culture media were removed from the 96-well cell culture plate. 100 μl of MTS reagent (CellTiter 96 AQueous One Solution Cell Proliferation Assay, Promega) was added to each well and the reaction was allowed to proceed at 37° C. for 20 min. After the reaction was finished, the cell viability were determined by measuring the absorbance at a wavelength of 490 nm.
# mice [4] = test: Formalin test (5% formalin, hind foot sole); format: in vivo; parameters: formalin test pain response: unit not given beside the values
# Description: 5% formalin was injected subcutaneously into the soles of the hind feet of mice. The mice licked their soles and shook their paws owing to formalin-induced pain. At 20-40 min post-injection (2nd phase), the mice again licked their soles or shook their paws. Pain felt for 5 min post-injection (1st phase) is the same level as the sensation of pain when the body is harmfully stimulated. Pain between 20 and 40 min (2nd phase) is mainly tonic inflammatory pain and is known to be very similar to pain after a big surgical operation.
# 30 min after pretreatment with the compound 3 (E-S) at concentrations of 10, 20, 40, and 80 mg/kg, formalin test was conducted to assess the analgesic efficacy of the compound 3. […] The analgesic efficacy of the compound 4 (E-A) was assessed in the same manner as that of the compound 3.
structure (smiles),measurement,setting,value
"O=C(NC1=NCC2c3ccccc3Cc3ccccc3N12)c1ccccc1O (centres unmarked) [E-S, N-(9,13b-dihydro-1H-dibenzo[c,f]imidazo[1,5-a]azepin-3-yl)-2-hydroxybenzamide]",response time to the thermal stimulus (hot-plate),mice [1]; 10 mg/kg,8.64
same,response time to the thermal stimulus (hot-plate),mice [1]; 20 mg/kg,13.34
same,response time to the thermal stimulus (hot-plate),mice [1]; 40 mg/kg,15.52
same,response time to the thermal stimulus (hot-plate),mice [1]; 80 mg/kg,19.30
same,analgesic efficacy in hot-plate test (in words),"mice [1]; 10, 20, 40, 80 mg/kg",significant at 40 and 80 mg/kg
same,effect on MAPK signaling by LPS signals,MAPK,did not appear to significantly affect MAPK signaling
same,threshold values (Von-frey test),"[2]; oral 10 mg/kg, 1 h, 10 mg/kg",0.173
same,threshold values (Von-frey test),"[2]; oral 10 mg/kg, 2 h, 10 mg/kg",0.211
same,threshold values (Von-frey test),"[2]; oral 10 mg/kg, 3 h, 10 mg/kg",0.148
same,threshold values (Von-frey test),"[2]; oral 10 mg/kg, 4 h, 10 mg/kg",0.166
same,threshold values (Von-frey test),"[2]; oral 10 mg/kg, 5 h, 10 mg/kg",0.107
same,threshold values (Von-frey test),"[2]; oral 10 mg/kg, basal",0.127
same,threshold values (Von-frey test),"[2]; oral 20 mg/kg, 1 h, 20 mg/kg",0.194
same,threshold values (Von-frey test),"[2]; oral 20 mg/kg, 2 h, 20 mg/kg",0.163
same,threshold values (Von-frey test),"[2]; oral 20 mg/kg, 4 h, 20 mg/kg",0.207
same,threshold values (Von-frey test),"[2]; oral 20 mg/kg, 5 h, 20 mg/kg",0.194
same,threshold values (Von-frey test),"[2]; oral 20 mg/kg, basal",0.127
same,threshold values (Von-frey test),"[2]; oral 40 mg/kg, 1 h, 40 mg/kg",0.183
same,threshold values (Von-frey test),"[2]; oral 40 mg/kg, 2 h, 40 mg/kg",0.214
same,threshold values (Von-frey test),"[2]; oral 40 mg/kg, 3 h, 40 mg/kg",0.278
same,threshold values (Von-frey test),"[2]; oral 40 mg/kg, 4 h, 40 mg/kg",0.257
same,threshold values (Von-frey test),"[2]; oral 40 mg/kg, 5 h, 40 mg/kg",0.152
same,threshold values (Von-frey test),"[2]; oral 40 mg/kg, basal",0.127
same,threshold values (Von-frey test),"[2]; oral 80 mg/kg, 1 h, 80 mg/kg",0.239
same,threshold values (Von-frey test),"[2]; oral 80 mg/kg, 2 h, 80 mg/kg",0.439
same,threshold values (Von-frey test),"[2]; oral 80 mg/kg, 3 h, 80 mg/kg",0.301
same,threshold values (Von-frey test),"[2]; oral 80 mg/kg, 4 h, 80 mg/kg",0.267
same,threshold values (Von-frey test),"[2]; oral 80 mg/kg, 5 h, 80 mg/kg",0.155
same,threshold values (Von-frey test),"[2]; oral 80 mg/kg, basal",0.138
same,"analgesic efficacy, Von-frey test (in words)","[2]; oral 10, 20, 40, 80 mg/kg",concentration-dependent until 2 h after treatment
same,"concentration of highest analgesic efficacy, Von-frey test","[2]; oral 10, 20, 40, 80 mg/kg tested",80 mg/kg
same,numbers of stretching and writhing movements,mice [3]; 10 mg/kg,33.75
same,numbers of stretching and writhing movements,mice [3]; 20 mg/kg,29.75
same,numbers of stretching and writhing movements,mice [3]; 40 mg/kg,23.75
same,numbers of stretching and writhing movements,mice [3]; 80 mg/kg,12.75
same,analgesic efficacy in writhing test (in words),"mice [3]; 10, 20, 40, 80 mg/kg",concentration-dependent
same,phosphorylation of Akt by LPS,Akt,observed to decrease
same,"cell toxicity (cell viability, MTS)",Raw 264.7 cells,no cell toxicities were observed
same,formalin test pain response,"mice [4]; 10 mg/kg, first column group (1st phase, not given)",66.25
same,formalin test pain response,"mice [4]; 10 mg/kg, second column group (2nd phase, not given)",48.5
same,formalin test pain response,"mice [4]; 20 mg/kg, first column group (1st phase, not given)",60.5
same,formalin test pain response,"mice [4]; 20 mg/kg, second column group (2nd phase, not given)",48.25
same,formalin test pain response,"mice [4]; 40 mg/kg, first column group (1st phase, not given)",60.5
same,formalin test pain response,"mice [4]; 40 mg/kg, second column group (2nd phase, not given)",45.0
same,formalin test pain response,"mice [4]; 80 mg/kg, first column group (1st phase, not given)",52.0
same,formalin test pain response,"mice [4]; 80 mg/kg, second column group (2nd phase, not given)",44.5
same,analgesic efficacy in formalin test (in words),"mice [4]; 10, 20, 40, 80 mg/kg",observed in the 2nd phase
